# Assay results reported in publication PMC7614683, “A small molecule PI3Kα activator for cardioprotection and neuroregeneration” (Nature, 2023).
# Like-named read-outs stand apart in the source and are kept apart here.
# Experiments:
# Assay in all cases: SelectScreen Z-LYTE kinase activity assay (SI Table 6)
# Assay type in all cases: biochemical
# [1] = biological target: protein kinases of the Z-LYTE panel (Homo sapiens, UniProt Q02750); details: MAP2K1 (MEK1), 1000 nM, [ATP] 100 μM
# Method in brief: (§1)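 A counterscreen of 133 protein and 7 lipid kinases was run with one compound concentration, 1 μM 1938, in SelectScreen Adapta, Lantha or Z-LYTE assays.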
# [2] = biological target: protein kinases of the Z-LYTE panel (Homo sapiens, UniProt P53350)
# Chain of protein kinases of the Z-LYTE panel (Homo sapiens, UniProt P53350) (P53350 whole entry): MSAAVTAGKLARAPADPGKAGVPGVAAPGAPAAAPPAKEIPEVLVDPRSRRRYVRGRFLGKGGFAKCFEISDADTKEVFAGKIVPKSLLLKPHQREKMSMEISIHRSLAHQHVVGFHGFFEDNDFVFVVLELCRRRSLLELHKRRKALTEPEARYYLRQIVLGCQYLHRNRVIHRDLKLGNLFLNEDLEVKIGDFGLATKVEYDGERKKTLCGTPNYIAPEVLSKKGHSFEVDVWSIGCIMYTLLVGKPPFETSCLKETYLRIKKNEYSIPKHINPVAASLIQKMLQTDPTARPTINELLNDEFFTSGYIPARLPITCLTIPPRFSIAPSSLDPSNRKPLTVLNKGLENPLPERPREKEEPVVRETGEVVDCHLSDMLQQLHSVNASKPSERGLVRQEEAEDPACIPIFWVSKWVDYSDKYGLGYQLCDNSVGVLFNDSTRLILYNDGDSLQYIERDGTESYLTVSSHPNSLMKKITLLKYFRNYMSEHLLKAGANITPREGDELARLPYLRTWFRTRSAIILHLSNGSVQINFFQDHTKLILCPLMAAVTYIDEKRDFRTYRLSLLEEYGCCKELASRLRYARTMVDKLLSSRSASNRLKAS
# Method in brief: as §1
# [3] = biological target: protein kinases of the Z-LYTE panel (Homo sapiens, UniProt P49760)
# Chain of protein kinases of the Z-LYTE panel (Homo sapiens, UniProt P49760) (P49760 whole entry): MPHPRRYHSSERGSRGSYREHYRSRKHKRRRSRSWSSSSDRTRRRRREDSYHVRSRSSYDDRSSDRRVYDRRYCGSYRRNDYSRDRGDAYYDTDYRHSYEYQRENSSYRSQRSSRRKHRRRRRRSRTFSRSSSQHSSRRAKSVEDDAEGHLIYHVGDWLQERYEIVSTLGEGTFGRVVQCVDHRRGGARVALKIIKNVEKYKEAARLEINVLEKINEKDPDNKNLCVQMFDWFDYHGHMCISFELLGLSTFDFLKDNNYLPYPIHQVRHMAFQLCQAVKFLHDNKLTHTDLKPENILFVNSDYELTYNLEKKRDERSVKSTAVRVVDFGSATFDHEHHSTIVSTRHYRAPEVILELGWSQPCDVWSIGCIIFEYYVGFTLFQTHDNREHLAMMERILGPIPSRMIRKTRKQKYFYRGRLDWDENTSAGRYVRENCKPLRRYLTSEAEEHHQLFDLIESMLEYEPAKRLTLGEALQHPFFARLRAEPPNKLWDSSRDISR
# Method in brief: as §1
# [4] = biological target: T1, protein kinases of the Z-LYTE panel (Homo sapiens, UniProt O15530); details: PDK1, 1000 nM, [ATP] 100 μM
# T1 sequence (O15530 1-556): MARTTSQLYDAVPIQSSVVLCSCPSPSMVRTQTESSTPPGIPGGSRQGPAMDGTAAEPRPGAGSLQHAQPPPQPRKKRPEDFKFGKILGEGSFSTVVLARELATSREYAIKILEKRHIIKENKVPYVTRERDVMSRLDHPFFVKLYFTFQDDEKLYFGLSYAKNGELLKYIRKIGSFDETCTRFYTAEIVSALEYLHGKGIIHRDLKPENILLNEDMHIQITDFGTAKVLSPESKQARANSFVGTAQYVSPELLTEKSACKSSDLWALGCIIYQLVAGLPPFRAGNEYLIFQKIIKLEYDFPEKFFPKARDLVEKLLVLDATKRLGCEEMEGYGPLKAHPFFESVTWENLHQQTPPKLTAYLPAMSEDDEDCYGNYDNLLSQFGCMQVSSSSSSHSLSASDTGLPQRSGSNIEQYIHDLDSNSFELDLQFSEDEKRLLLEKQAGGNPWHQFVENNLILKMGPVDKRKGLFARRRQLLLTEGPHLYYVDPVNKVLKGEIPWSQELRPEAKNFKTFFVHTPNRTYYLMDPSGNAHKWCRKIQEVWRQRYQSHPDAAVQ
# Method in brief: as §1
# [5] = biological target: protein kinases of the Z-LYTE panel (Homo sapiens, UniProt Q9UM73)
# Chain of protein kinases of the Z-LYTE panel (Homo sapiens, UniProt Q9UM73) (Q9UM73 19-1620): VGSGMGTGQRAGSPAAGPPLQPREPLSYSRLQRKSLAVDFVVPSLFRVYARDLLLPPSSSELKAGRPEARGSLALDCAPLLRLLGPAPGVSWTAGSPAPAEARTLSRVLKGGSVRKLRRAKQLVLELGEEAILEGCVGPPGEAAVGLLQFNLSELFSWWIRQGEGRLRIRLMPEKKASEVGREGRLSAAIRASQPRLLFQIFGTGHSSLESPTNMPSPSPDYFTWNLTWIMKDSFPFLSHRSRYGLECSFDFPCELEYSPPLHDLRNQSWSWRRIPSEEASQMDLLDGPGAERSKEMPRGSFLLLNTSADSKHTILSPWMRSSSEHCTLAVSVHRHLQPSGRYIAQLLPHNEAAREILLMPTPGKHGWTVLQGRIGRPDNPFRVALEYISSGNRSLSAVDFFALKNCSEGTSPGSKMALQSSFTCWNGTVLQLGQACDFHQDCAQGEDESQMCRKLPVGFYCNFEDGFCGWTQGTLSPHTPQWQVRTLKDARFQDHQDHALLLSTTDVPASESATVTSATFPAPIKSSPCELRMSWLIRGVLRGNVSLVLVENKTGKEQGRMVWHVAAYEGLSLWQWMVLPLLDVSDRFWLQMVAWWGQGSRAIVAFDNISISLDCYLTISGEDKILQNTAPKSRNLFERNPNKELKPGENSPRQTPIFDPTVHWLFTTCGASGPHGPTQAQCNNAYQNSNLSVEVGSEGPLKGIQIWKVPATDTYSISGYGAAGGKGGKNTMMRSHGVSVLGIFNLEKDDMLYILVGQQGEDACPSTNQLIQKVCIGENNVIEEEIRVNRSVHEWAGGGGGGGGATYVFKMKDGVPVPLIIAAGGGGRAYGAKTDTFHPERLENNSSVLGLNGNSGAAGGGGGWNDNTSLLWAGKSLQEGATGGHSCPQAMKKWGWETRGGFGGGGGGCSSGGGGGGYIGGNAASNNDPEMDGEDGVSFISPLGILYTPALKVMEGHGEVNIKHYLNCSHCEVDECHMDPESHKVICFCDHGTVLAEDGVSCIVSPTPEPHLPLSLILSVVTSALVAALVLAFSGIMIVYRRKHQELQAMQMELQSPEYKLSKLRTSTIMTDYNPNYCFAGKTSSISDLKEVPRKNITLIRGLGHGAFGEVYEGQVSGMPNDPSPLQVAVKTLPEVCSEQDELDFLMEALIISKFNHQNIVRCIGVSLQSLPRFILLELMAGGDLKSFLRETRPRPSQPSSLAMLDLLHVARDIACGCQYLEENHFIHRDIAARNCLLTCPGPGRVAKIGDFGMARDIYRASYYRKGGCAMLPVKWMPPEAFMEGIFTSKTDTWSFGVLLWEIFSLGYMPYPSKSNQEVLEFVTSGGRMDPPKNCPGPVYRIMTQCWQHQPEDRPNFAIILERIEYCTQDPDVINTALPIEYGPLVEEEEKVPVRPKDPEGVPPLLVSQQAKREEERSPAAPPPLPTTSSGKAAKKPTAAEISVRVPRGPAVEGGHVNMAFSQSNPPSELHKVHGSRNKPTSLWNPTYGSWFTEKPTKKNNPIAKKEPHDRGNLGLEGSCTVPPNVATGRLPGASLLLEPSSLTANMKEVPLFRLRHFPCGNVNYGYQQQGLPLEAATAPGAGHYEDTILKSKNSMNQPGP
# Method in brief: as §1
# [6] = biological target: T2, protein kinases of the Z-LYTE panel (Homo sapiens, UniProt Q13043)
# T2 sequence (Q13043 1-487): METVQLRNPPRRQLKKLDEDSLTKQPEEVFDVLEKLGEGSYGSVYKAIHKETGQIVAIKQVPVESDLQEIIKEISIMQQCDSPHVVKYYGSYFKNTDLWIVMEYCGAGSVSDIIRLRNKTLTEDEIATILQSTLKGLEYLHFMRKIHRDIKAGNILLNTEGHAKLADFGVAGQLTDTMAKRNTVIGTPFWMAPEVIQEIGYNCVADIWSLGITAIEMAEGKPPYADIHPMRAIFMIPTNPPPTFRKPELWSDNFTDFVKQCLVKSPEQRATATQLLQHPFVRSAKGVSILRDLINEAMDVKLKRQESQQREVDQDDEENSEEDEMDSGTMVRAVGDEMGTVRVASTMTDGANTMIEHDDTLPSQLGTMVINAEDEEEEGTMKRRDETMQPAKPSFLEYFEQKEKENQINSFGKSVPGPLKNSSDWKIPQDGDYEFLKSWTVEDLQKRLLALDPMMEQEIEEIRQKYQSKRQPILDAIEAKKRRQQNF
# Method in brief: as §1
# Chain of protein kinases of the Z-LYTE panel (Homo sapiens, UniProt Q02750) (Q02750 whole entry): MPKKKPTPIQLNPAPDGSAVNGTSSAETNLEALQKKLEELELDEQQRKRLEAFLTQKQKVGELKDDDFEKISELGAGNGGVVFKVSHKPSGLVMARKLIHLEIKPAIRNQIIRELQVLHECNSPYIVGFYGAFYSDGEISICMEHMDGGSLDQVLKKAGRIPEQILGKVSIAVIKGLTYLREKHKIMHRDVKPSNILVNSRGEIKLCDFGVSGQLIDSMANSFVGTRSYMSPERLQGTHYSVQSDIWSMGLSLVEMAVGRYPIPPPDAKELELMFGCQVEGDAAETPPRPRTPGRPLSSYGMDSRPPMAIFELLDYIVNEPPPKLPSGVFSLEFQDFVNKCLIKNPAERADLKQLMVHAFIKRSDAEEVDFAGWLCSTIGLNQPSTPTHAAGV
smiles,measurement,setting,value
CCN1CCN(c2ccc(Nc3cc(Nc4cccc5c4N(C(C)=O)CC5)ccn3)cc2)CC1 [Compound 1938],inhibition at 1 µM,[1]; read-out: % Inhibition Point 1,4%
same,inhibition at 1 µM,[1]; read-out: % Inhibition Point 2,3.36%
same,inhibition at 1 µM,[1]; read-out: % Inhibition mean,3.61%
same,inhibition at 1 µM,[2]; read-out: % Inhibition Point 1,2.86%
same,inhibition at 1 µM,[2]; read-out: % Inhibition Point 2,3.28%
same,inhibition at 1 µM,[2]; read-out: % Inhibition mean,3%
same,inhibition at 1 µM,[3]; read-out: % Inhibition Point 1,2.33%
same,inhibition at 1 µM,[3]; read-out: % Inhibition Point 2,1.66%
same,inhibition at 1 µM,[3]; read-out: % Inhibition mean,2%
same,inhibition at 1 µM,[4]; read-out: % Inhibition Point 1,6%
same,inhibition at 1 µM,[4]; read-out: % Inhibition Point 2,7%
same,inhibition at 1 µM,[4]; read-out: % Inhibition mean,6%
same,inhibition at 1 µM,[5]; read-out: % Inhibition Point 1,11%
same,inhibition at 1 µM,[5]; read-out: % Inhibition Point 2,15%
same,inhibition at 1 µM,[5]; read-out: % Inhibition mean,13%
same,inhibition at 1 µM,[6]; read-out: % Inhibition Point 1,4%
same,inhibition at 1 µM,[6]; read-out: % Inhibition Point 2,1.07%
same,inhibition at 1 µM,[6]; read-out: % Inhibition mean,2.46%
